# Measured values taken from patent US9220719B2, “Single dose oral formulations and methods for treatment of cats with ectoparasiticidal spinosad” (priority 2012, dated 2015).
# Assays:
# [1] = Pharmacokinetics of spinosad API capsules and spinosad tablets after oral administration to cats (Example 2); details: for mean Tmax / mean elimination half-life (t1/2) / mean normalized AUC0-∞ / mean normalized Cmax: cats, oral; for mean normalized AUC0-∞ / mean normalized Cmax: plasma, normalized to dose
# Method: The plasma concentrations and resulting pharmacokinetics of spinosad tablets when administered orally to adult cats in the fed or fasted state can be evaluated. Twenty four cats (12 male and 12 female) can be dosed with approximately 80 mg/kg spinosad, as either API in gelatin capsules or as spinosad formulated chewable tablets. Serial blood samples can be collected through 672 hours (28 days) after dose administration. […] Samples can be immediately mixed by inversion several times and stored on ice until centrifuged. The plasma can be collected, split into two approximately equal aliquots and stored frozen at approximately −70° C. until shipped for analysis, and/or analyzed by a validated LC/MS/MS assay.
# [2] = Tolerability of flavored spinosad tablet in cats (Example 3); format: in vivo, cat; details: beef flavored tablet 51.47 to 76.06 mg/kg single oral dose
# Excerpt: (§1) In total, twenty-two (22) cats can be acclimatized for the study and from these, 17 can be selected based on pre-treatment weight and flea retention counts to be randomized into either a treated or control group. Nine cats can be assigned to the control group and eight cats can be assigned to the treatment group based on flea retention counts from Day −5. Cats in the treated group can be dosed on Day 0 with the intended final formulation, a beef flavored tablet containing spinosad at a dose rate of 50-75 mg/kg spinosad/body weight, while the cats in the control group can be dosed with a vehicle control tablet.
# (§2) Seventeen cats were randomized based on pre-treatment flea infestation counts into either a treated or control group. Eight cats were dosed on Day 0 with a beef flavored tablet containing spinosad with an overall dose range of 51.47 to 76.06 mg/kg spinosad body weight. The other nine cats were dosed with a vehicle control tablet.
# [3] = tested on: adult cat fleas (Ctenocephalides felis); assay: Dose confirmation: efficacy of beef flavored spinosad tablet against fleas on experimentally infested cats (Example 3); format: in vivo; details: beef flavored tablet 50-75 mg/kg single oral dose
# Method: The treatment effect (insecticidal efficacy) of a beef flavored spinosad tablet when administered orally at a dose of 50-75 mg/kg against fleas (Ctenocephalides felis) on experimentally infested cats can be evaluated at one day post-administration and for the post-treatment prevention effect (residual efficacy) on Days 7, 14, 21 and 28.
# as §1
# Each cat can be infested with approximately 100 fleas on Days −1, 7, 14, 21 and 28 and then combed and the fleas counted on Days 1, 9, 16, 23 and 30 respectively.
# as §2
# [4] = Tolerability of oral spinosad in cats (Example 1); format: in vivo, cat; details: single oral dose 35-50 mg/kg in gelatin capsule
# [5] = tested on: adult cat fleas (Ctenocephalides felis); assay: Dose confirmation: efficacy of flavored spinosad tablet against fleas on experimentally infested cats (Example 4); format: in vivo; details: flavored tablet 50-75 mg/kg single oral dose, fed
# Excerpt: Confirmation of the efficacious dose of spinosad can be evaluated in cats experimentally infested with adult fleas (Ctenocephalides felis).
# Twenty-four (24) cats that meet the inclusion/exclusion criteria and had the highest pre-treatment live flea (C. felis) counts can be included in a randomized complete block design with pre-treatment live flea counts used as a blocking factor. Each cat can be infested with approximately 100 unfed adult fleas (C. felis) on Test Day −9. Pre-treatment live flea counts can be conducted using the laboratory's comb counting method on Test Day −7. The Test Day −7 live flea counts can be used to allocate cats to one of two treatment groups. The two treatment groups of 12 cats per group can be orally dosed on Test Day 0. One group (5 male: 7 female) can receive vehicle control (0 mg/kg placebo tablets) and the second group (7 male: 5 female) can receive flavored spinosad tablets at a dose rate of 50-75 mg/kg body weight. Cats can consume canned cat food just prior to dosing and can be offered their daily maintenance diet after dosing. Each cat can be infested with approximately 100 unfed adult fleas (C. felis) on Test Days −1, 5, 12, 19, 28 and 35. Individual animal live flea counts can be performed on Test Days 1, 7, 14, 21, 30 and 37.
# [6] = tested on: adult cat flea (Ctenocephalides felis); assay: Dose determination: knockdown and residual effectiveness of spinosad (gelatin capsule) against adult fleas on experimentally infested cats (Example 1); format: in vivo; details: for Geometric Mean Counts of Adult C. felis / Geometric Mean Percent Reduction of Adult C. felis Compared to Untreated Control Group: fed
# Excerpt: The “knockdown” and “residual” effectiveness of spinosad can be evaluated following oral administration at four different single dosages, compared to a non-treated control group, against the adult cat flea (Ctenocephalides felis) on experimentally infested cats. A minimum effective oral dose in cats can be evaluated based on knockdown efficacy (i.e., on Day 1 following administration) and on residual efficacy (i.e., on Day 30 following administration) against the cat flea (Ctenocephalides felis).
# Forty cats can be evaluated in a randomized complete block design with cat gender and pretreatment live flea counts used as blocking factors. Five treatment groups of four female and four male cats per group can be orally dosed on Test Day 0: Group (1) can be administered 0 mg/kg vehicle control (empty gelatin capsule); Group (2) can be administered spinosad in a gelatin capsule at a dose of 35 mg/kg body weight; Group (3) can be administered spinosad in a gelatin capsule at a dose of 40 mg/kg body weight; Group (4) can be administered spinosad in a gelatin capsule at a dose of 45 mg/kg body weight; and Group (5) can be administered spinosad in a gelatin capsule at a dose of 50 mg/kg body weight. All cats can consume canned cat food just prior to dosing to ensure they were in a fed state. Each cat can be infested with approximately 100 newly emerged, unfed adult fleas (C. felis), on Test Days −6, −1, 5, 12, 19, 28 and 35. Individual animal flea counts can be performed approximately 48-hours post-infestation using the laboratory's comb counting method on Test Days −4, 1, 7, 14, 21, 30 and 37. The Day −4 pre-treatment live flea counts can be used to allocate animals to the five treatment groups. The Day 1, 7, 14, 21, 30 and 37 flea counts can be used to evaluate the knockdown (Day 1) and residual flea efficacy in each of the treated groups compared to the vehicle (negative) control group.
# [7] = group 1: 80 mg/kg spinosad API in gel capsules, fed
# [8] = group 2: 80 mg/kg spinosad tablets, fed
# [9] = group 3: 80 mg/kg spinosad tablets, fasted
# [10] = single oral dose 35 mg/kg in gelatin capsule, Day 7 post treatment
# [11] = single oral dose 35 mg/kg in gelatin capsule, Day 14 post treatment
# [12] = single oral dose 35 mg/kg in gelatin capsule, Day 21 post treatment
# [13] = single oral dose 35 mg/kg in gelatin capsule, Day 37 post treatment
# [14] = single oral dose 40 mg/kg in gelatin capsule, Day 7 post treatment
# [15] = single oral dose 40 mg/kg in gelatin capsule, Day 14 post treatment
# [16] = single oral dose 40 mg/kg in gelatin capsule, Day 21 post treatment
# [17] = single oral dose 40 mg/kg in gelatin capsule, Day 30 post treatment
# [18] = single oral dose 40 mg/kg in gelatin capsule, Day 37 post treatment
# [19] = single oral dose 45 mg/kg in gelatin capsule, Day 7 post treatment
# [20] = single oral dose 45 mg/kg in gelatin capsule, Day 14 post treatment
# [21] = single oral dose 45 mg/kg in gelatin capsule, Day 21 post treatment
# [22] = single oral dose 45 mg/kg in gelatin capsule, Day 37 post treatment
# [23] = single oral dose 50 mg/kg in gelatin capsule, Day 7 post treatment
# [24] = single oral dose 50 mg/kg in gelatin capsule, Day 14 post treatment
# [25] = single oral dose 50 mg/kg in gelatin capsule, Day 21 post treatment
# [26] = single oral dose 50 mg/kg in gelatin capsule, Day 30 post treatment
# [27] = single oral dose 50 mg/kg in gelatin capsule, Day 37 post treatment
substance,measurement,setting,value
spinosyn A,mean Tmax,[1]; [7],12 ± 5.2 h
same,mean elimination half-life (t1/2),[1]; [7],327 ± 84.3 h
same,mean normalized AUC0-∞,[1]; [7],"4,460±1410 hr*ng*kg/mg*mL"
same,mean normalized Cmax,[1]; [7],60 ± 18 ng·kg/mg/mL
same,mean Tmax,[1]; [8],10 ± 3.0 h
same,mean elimination half-life (t1/2),[1]; [8],277 ± 75.5 h
same,mean normalized AUC0-∞,[1]; [8],"4,480±1180 hr*ng*kg/mg*mL"
same,mean normalized Cmax,[1]; [8],46 ± 14 ng·kg/mg/mL
same,mean Tmax,[1]; [9],6.0 ± 3.7 h
same,mean elimination half-life (t1/2),[1]; [9],193 ± 60.5 h
same,mean normalized AUC0-∞,[1]; [9],781 ± 406 ng·kg·h/mg/mL
same,mean normalized Cmax,[1]; [9],11 ± 6.6 ng·kg/mg/mL
spinosad,tolerability,[2],adequately tolerated
same,Geometric Mean Percent Reduction of Adult C. felis Compared to Untreated Control Group,[3]; Day 1 post treatment,100.0%
same,Geometric Mean Percent Reduction of Adult C. felis Compared to Untreated Control Group,"[3]; Day 7 (day of infestation, counted Day 9)",100.0%
same,Geometric Mean Percent Reduction of Adult C. felis Compared to Untreated Control Group,"[3]; Day 14 (day of infestation, counted Day 16)",99.69%
same,Geometric Mean Percent Reduction of Adult C. felis Compared to Untreated Control Group,"[3]; Day 21 (day of infestation, counted Day 23)",99.45%
same,Geometric Mean Percent Reduction of Adult C. felis Compared to Untreated Control Group,"[3]; Day 28 (day of infestation, counted Day 30)",98.05%
same,AUC0-∞ in fed animals relative to fasted animals,[1]; in vivo,5-10 times
same,Cmax in fed animals relative to fasted animals,[1]; in vivo,4-7 times
same,tolerability,[4],well tolerated
same,knockdown efficacy based on geometric means,[5]; Day 1,100%
same,residual efficacy based on geometric means,[5]; Day 7,99.78%
same,residual efficacy based on geometric means,[5]; Day 14,99.57%
same,residual efficacy based on geometric means,[5]; Day 21,95.83%
same,residual efficacy based on geometric means,[5]; Day 30,90.77%
same,residual efficacy based on geometric means,[5]; Day 37,90.36%
same,fleas at each comb count,"[6]; 50 mg/kg oral, up through Day 21",zero
same,post-treatment residual flea efficacy (geometric means),"[6]; all four spinosad groups (35, 40, 45, 50 mg/kg oral), up to and including Day 21 post-treatment",> 90%
same,Geometric Mean Counts of Adult C. felis,"[6]; single oral dose 35 mg/kg in gelatin capsule, Day 1 post treatment",(0.0)
same,Geometric Mean Percent Reduction of Adult C. felis Compared to Untreated Control Group,"[6]; single oral dose 35 mg/kg in gelatin capsule, Day 1 post treatment, 35 mg/kg",100%
same,Geometric Mean Counts of Adult C. felis,[6]; [10],(0.0)
same,Geometric Mean Percent Reduction of Adult C. felis Compared to Untreated Control Group,[6]; [10],100.00%
same,Geometric Mean Counts of Adult C. felis,[6]; [11],(0.2)
same,Geometric Mean Percent Reduction of Adult C. felis Compared to Untreated Control Group,[6]; [11],99.74%
same,Geometric Mean Counts of Adult C. felis,[6]; [12],(5.4)
same,Geometric Mean Percent Reduction of Adult C. felis Compared to Untreated Control Group,[6]; [12],92.94%
same,Geometric Mean Counts of Adult C. felis,"[6]; single oral dose 35 mg/kg in gelatin capsule, Day 30 post treatment",(11.8)
same,Geometric Mean Counts of Adult C. felis,[6]; [13],(32.4)
same,Geometric Mean Percent Reduction of Adult C. felis Compared to Untreated Control Group,[6]; [13],52.20%
same,Geometric Mean Counts of Adult C. felis,"[6]; single oral dose 40 mg/kg in gelatin capsule, Day 1 post treatment",(0.0)
same,Geometric Mean Percent Reduction of Adult C. felis Compared to Untreated Control Group,"[6]; single oral dose 40 mg/kg in gelatin capsule, Day 1 post treatment, 40 mg/kg",100%
same,Geometric Mean Counts of Adult C. felis,[6]; [14],(0.0)
same,Geometric Mean Percent Reduction of Adult C. felis Compared to Untreated Control Group,[6]; [14],100.00%
same,Geometric Mean Counts of Adult C. felis,[6]; [15],(0.0)
same,Geometric Mean Percent Reduction of Adult C. felis Compared to Untreated Control Group,[6]; [15],100.00%
same,Geometric Mean Counts of Adult C. felis,[6]; [16],(1.0)
same,Geometric Mean Percent Reduction of Adult C. felis Compared to Untreated Control Group,[6]; [16],98.74%
same,Geometric Mean Counts of Adult C. felis,[6]; [17],(5.2)
same,Geometric Mean Percent Reduction of Adult C. felis Compared to Untreated Control Group,[6]; [17],91.59%
same,Geometric Mean Counts of Adult C. felis,[6]; [18],(18.9)
same,Geometric Mean Percent Reduction of Adult C. felis Compared to Untreated Control Group,[6]; [18],72.18%
same,Geometric Mean Counts of Adult C. felis,"[6]; single oral dose 45 mg/kg in gelatin capsule, Day 1 post treatment",(0.0)
same,Geometric Mean Percent Reduction of Adult C. felis Compared to Untreated Control Group,"[6]; single oral dose 45 mg/kg in gelatin capsule, Day 1 post treatment, 45 mg/kg",100%
same,Geometric Mean Counts of Adult C. felis,[6]; [19],(0.4)
same,Geometric Mean Percent Reduction of Adult C. felis Compared to Untreated Control Group,[6]; [19],99.50%
same,Geometric Mean Counts of Adult C. felis,[6]; [20],(2.0)
same,Geometric Mean Percent Reduction of Adult C. felis Compared to Untreated Control Group,[6]; [20],97.22%
same,Geometric Mean Counts of Adult C. felis,[6]; [21],(4.6)
same,Geometric Mean Percent Reduction of Adult C. felis Compared to Untreated Control Group,[6]; [21],93.98%
same,Geometric Mean Counts of Adult C. felis,"[6]; single oral dose 45 mg/kg in gelatin capsule, Day 30 post treatment",(11.9)
same,Geometric Mean Counts of Adult C. felis,[6]; [22],(35.1)
same,Geometric Mean Percent Reduction of Adult C. felis Compared to Untreated Control Group,[6]; [22],48.29%
same,Geometric Mean Counts of Adult C. felis,"[6]; single oral dose 50 mg/kg in gelatin capsule, Day 1 post treatment",(0.0)
same,Geometric Mean Percent Reduction of Adult C. felis Compared to Untreated Control Group,"[6]; single oral dose 50 mg/kg in gelatin capsule, Day 1 post treatment, 50 mg/kg",100%
same,Geometric Mean Counts of Adult C. felis,[6]; [23],(0.0)
same,Geometric Mean Percent Reduction of Adult C. felis Compared to Untreated Control Group,[6]; [23],100.00%
same,Geometric Mean Counts of Adult C. felis,[6]; [24],(0.0)
same,Geometric Mean Percent Reduction of Adult C. felis Compared to Untreated Control Group,[6]; [24],100.00%
same,Geometric Mean Counts of Adult C. felis,[6]; [25],(0.0)
same,Geometric Mean Percent Reduction of Adult C. felis Compared to Untreated Control Group,[6]; [25],100.00%
same,Geometric Mean Counts of Adult C. felis,[6]; [26],(1.6)
same,Geometric Mean Percent Reduction of Adult C. felis Compared to Untreated Control Group,[6]; [26],97.33%
same,Geometric Mean Counts of Adult C. felis,[6]; [27],(8.5)
same,Geometric Mean Percent Reduction of Adult C. felis Compared to Untreated Control Group,[6]; [27],87.50%
